Molecules are shown by their SMILES.

This is an account of results in ChEMBL document CHEMBL1132546, “Na(+)-glucose cotransporter (SGLT) inhibitors as antidiabetic agents. 4. Synthesis and pharmacological properties of 4'-dehydroxyphlorizin derivatives substituted on the B ring” (1999).

The assay in a line: Compound was tested for urinary glucose excretion (mg/24 h) at 100 mg/Kg dose of compound given perorally. The arrangement: unit: mg/24 h. The format is functional, Rattus norvegicus, Urine.
As to `COC1(C)OC[C@H]2O[C@@H](Oc3cc(C)cc(O)c3C(=O)CCc3ccc4occc4c3)[C@H](O)[C@@H](O)[C@@H]2O1` (some centres undefined), the Urinary glucose excretion worked out at 729.
The result for `COC(=O)OC[C@H]1O[C@@H](Oc2cc(C)cc(O)c2C(=O)CCc2ccc3occc3c2)[C@H](O)[C@@H](O)[C@@H]1O` reads 1192.
Compound `O=C(CCc1ccc2occc2c1)c1c(O)cccc1O[C@@H]1O[C@H](CO)[C@@H](O)[C@H](O)[C@H]1O` yielded a Urinary glucose excretion of 321.
`CC(=O)OC[C@H]1O[C@@H](Oc2cc(C)cc(OC(C)=O)c2C(=O)CCc2ccc3occc3c2)[C@H](O)[C@@H](O)[C@@H]1O` returned a Urinary glucose excretion of 183.
The compound `O=C(CCc1ccc2occc2c1)c1c(O)c(Cl)cc(Cl)c1O[C@@H]1O[C@H](CO)[C@@H](O)[C@H](O)[C@H]1O` registered a Urinary glucose excretion of 5.
`CC(C)c1cc(O)c(C(=O)CCc2ccc3occc3c2)c(O[C@@H]2O[C@H](CO)[C@@H](O)[C@H](O)[C@H]2O)c1`: the Urinary glucose excretion is 128.
As to `CCc1cc(O)c(C(=O)CCc2ccc3occc3c2)c(O[C@@H]2O[C@H](CO)[C@@H](O)[C@H](O)[C@H]2O)c1`, the Urinary glucose excretion was 864.
Turning to `COc1cc(O)c(C(=O)CCc2ccc3occc3c2)c(O[C@@H]2O[C@H](CO)[C@@H](O)[C@H](O)[C@H]2O)c1`, the Urinary glucose excretion came out at 38.
For the compound `CC(=O)O[C@H]1[C@H](Oc2cc(C)cc(O)c2C(=O)CCc2ccc3occc3c2)O[C@H](CO)[C@@H](O)[C@@H]1OC(C)=O`, the Urinary glucose excretion is on record as 349.
On to `CCOC(=O)OC[C@H]1O[C@@H](Oc2cc(C)cc(O)c2C(=O)CCc2ccc3occc3c2)[C@H](O)[C@@H](O)[C@@H]1O`, for which the Urinary glucose excretion came out at 805.
Take `Cc1cc(O)c(C(=O)CCc2ccc3occc3c2)c(O[C@@H]2O[C@H](COC(=O)OC(C)C)[C@@H](O)[C@H](O)[C@H]2O)c1`: the Urinary glucose excretion is reported as 980.
`O=C(CCc1ccc2occc2c1)c1c(O)cc(O)cc1O[C@@H]1O[C@H](CO)[C@@H](O)[C@H](O)[C@H]1O`: the Urinary glucose excretion was 38.
The same measure for `C=CCc1ccc(O[C@@H]2O[C@H](CO)[C@@H](O)[C@H](O)[C@H]2O)c(C(=O)CCc2ccc3occc3c2)c1O`: 5; for `CC(=O)O[C@H]1[C@H](Oc2cc(C)cc(O)c2C(=O)CCc2ccc3occc3c2)O[C@H](CO)[C@@H](O)[C@@H]1O`: 482; for `COCCOC(=O)OC[C@H]1O[C@@H](Oc2cc(C)cc(O)c2C(=O)CCc2ccc3occc3c2)[C@H](O)[C@@H](O)[C@@H]1O`: 817.
The result for `CCCc1cc(O)c(C(=O)CCc2ccc3occc3c2)c(O[C@@H]2O[C@H](CO)[C@@H](O)[C@H](O)[C@H]2O)c1` reads 27; that for `CCc1ccc(O[C@@H]2O[C@H](CO)[C@@H](O)[C@H](O)[C@H]2O)c(C(=O)CCc2ccc3occc3c2)c1O`, 1.
On to `O=C(CCc1ccc2occc2c1)c1c(O)cc(Cl)cc1O[C@@H]1O[C@H](CO)[C@@H](O)[C@H](O)[C@H]1O`, for which the Urinary glucose excretion is 8.
The compound `Cc1ccc(O)c(C(=O)CCc2ccc3occc3c2)c1O[C@@H]1O[C@H](CO)[C@@H](O)[C@H](O)[C@H]1O` had a Urinary glucose excretion of 5.
For `Cc1cc(O)c(C(=O)CCc2ccc3occc3c2)c(O[C@@H]2O[C@H](CO)[C@@H](O)[C@H](O)[C@H]2O)c1`, the Urinary glucose excretion is on record as 935.
The compound `CC(=O)Oc1cc(C)cc(O[C@@H]2O[C@H](CO)[C@@H](O)[C@H](OC(C)=O)[C@H]2OC(C)=O)c1C(=O)CCc1ccc2occc2c1` returned a Urinary glucose excretion of 1450.
In turn, `CC(=O)OC[C@H]1O[C@@H](Oc2cc(C)cc(O)c2C(=O)CCc2ccc3occc3c2)[C@H](O)[C@@H](O)[C@@H]1O` showed a Urinary glucose excretion of 540.
The result for `COCC(=O)OC[C@H]1O[C@@H](Oc2cc(C)cc(O)c2C(=O)CCc2ccc3occc3c2)[C@H](O)[C@@H](O)[C@@H]1O` reads 721.
The compound `COC(=O)O[C@H]1[C@H](O)[C@@H](O)[C@H](Oc2cc(C)cc(O)c2C(=O)CCc2ccc3occc3c2)O[C@@H]1CO` had a Urinary glucose excretion of 1407.
